# Source: US9738623B2, “Curcumin analogs” (The General Hospital Corporation, priority 2012, dated 2017)
# Tests used:
# Aβ42 [1] = molecular target: T1, Aβ42 (Homo sapiens, UniProt P05067); test: Western blot of copper-induced crosslinking of native Aβ42; assay type: biochemical; conditions: for attenuation of copper-induced crosslinking of native Aβ42: 4 hours incubation; for high molecular weight species on gel: copper treated
# T1 construct: Synthetic amyloid-β peptide (1-40/42) was purchased from rPeptide; purchased rPeptide (Bogart, Ga.)
# Procedure: (§1) Samples were separated on 4-20% gradient Tris-glycine mini gels (Invitrogen). For FAM-Aβ42 gels, the images were acquired on IVIS®Spectrum (Caliper, Perkin Elmer) with excitation=465 nm, and emission=520 nm. For native Aβ42 gels, the gel was transferred to a nitrocellulose membrane in a cooled transferring buffer and the membrane was blocked at room temperature for 2 hours. After blocking, the membrane was incubated in a solution of 6E10 anti-Aβ primary antibody (1:2000 dilution, Covance, Dedham, Mass.) at 4° C. overnight. After washing with TBS buffer, the membrane was incubated with the secondary antibody for 2 hours at room temperature. Western Breeze Chemiluminescent kit (Invitrogen) was used to visualize the bands. The images were acquired using IVIS®Spectrum (Caliper, Perkin Elmer) using bioluminescence imaging setting. SeeBlue®plus2 (Invitrogen)(4-250KD) was used as a molecular weight marker.
# (§2) All the samples used for SDS-PAGE gel and Western blot were prepared using the same procedure as described below. A 5 μL HFIP (hexafluoroisopropanol) solution (25 μM) of native Aβ42 or FAM-Aβ42 was added to a 1.5 mL eppendorf tube. After evaporating the organic solvent under vacuum, a 5 μL at DMSO or DMSO solution of CRANAD-17 (100 μM) was added to the tube, followed by the addition of 15 μL of Vitamin C solution in PBS (33.3 μM) and 5 μL of copper sulfate solution in PBS (12.5 μM). The resulting mixture was incubated at 37° C. for 4 hours, and was then subjected to gel electrophoresis. For dose dependency study, 5 μL of DMSO solution of different CRANAD-17 concentrations (25, 125, 250 μM) was added to obtain CRANAD-17/Aβ42 ratio equals 1:1, 5:1, and 10:1.
# To this end, human Aβ42 was incubated with curcumin, CRANAD-3 and CRANAD-17 under the same conditions as above.
# FAM-Aβ42 = molecular target: T2, FAM-Aβ42 (Homo sapiens, UniProt P05067); test: SDS-PAGE of copper-induced crosslinking of FAM-Aβ42; assay type: biochemical; conditions: for intensity of monomeric Aβ bands relative to non-treated group: 4 hours incubation with copper sulfate and vitamin C
# T2 construct: a Aβ42 labeled with fluorescent dye (FAM) (FAM-Aβ42); purchased American Peptide Company
# Procedure: as §1, §2
# human Aβ40 = molecular target: T3, human Aβ40 (Homo sapiens, UniProt P05067); test: Fluorescence spectra recording with Aβ40; assay type: binding; conditions: 500 nM compound, 250 nM Aβ
# T3 construct: Synthetic amyloid-β peptide (1-40/42) was purchased from rPeptide; purchased rPeptide (Bogart, Ga.)
# Procedure: (§3) The procedure described below was used for all experiments. To test the interactions of CRANAD-17 with Aβ species including Aβ42 monomers, Aβ40 monomers and [H13R]Aβ40 monomers, we utilize the following protocol. Step 1: 1.0 mL of PBS buffer was added to a quartz curvet as a blank control and its fluorescence was recorded with the same parameters as for CRANAD-17; Step 2: fluorescence of a CRANAD-17 solution (1 mL, 500 nM) was recorded with excitation at 480 nm and emission from 500 nm to 900 nm; Step 3: to the above CRANAD-17 solution, 10 μL of Aβ species (25 μM) was added to make the final Aβ species concentration of 250 nM, and the fluorescence spectrum from this solution was recorded. The final spectra from steps 2 and 3 were corrected using the blank control from step 1.
# Aβ42 [2] = molecular target: T1, Aβ42; test: TEM measurement of Aβ42 aggregation; assay type: biochemical; conditions: 1.0 μM compound, 250 nM Aβ42, 37° C., 24 hours
# Procedure: A 250 nM of Aβ42 in PBS solution was placed was at 37° C. for 24 hours. Next, 5 μL of this solution was dropped onto a Formvar coated TEM grid, followed by the addition of 2 μL of PTA contrast solution. After one minute, the liquid on the grid was carefully dried with a corner of a filter paper, and the resulting grid was further dried in the air for 2-5 minute. The TEM images were taken with JEOL 1011 electron microscope. Similar procedure was used for the incubated solution of CRANAD-l7 (1.0 μM) and Aβ42 (250 nM).
# APP/PS1 mice = test: In vivo six-month treatment of APP/PS1 mice (NIR imaging, ELISA, plaque counting); conditions: 4 mg/kg i.p. twice a week, 6-month treatment
# Procedure: Transgenic APP-PS1 mice and age-matched wild type mice were purchased from Jackson Laboratory. In vivo NIR imaging was recorded using the IVIS° Spectrum.
# Ten APP/PS 1 mice (4-month) were divided into 2 groups (n=5/group), and one group was i.p. injected with 100 microliter of CRANAD-17 (4 mg/kg, formulated withl0% cremophor, 10% DMSO and 80% PBS) twice a week. After 6-month treatment, the two groups were subjected to NIR imaging with CRANAD-3 (ex=605, em=680 nm), and then were sacrificed. The brain of each mouse was taken, and dissected in two halves. One half brain was subjected to extraction and then to ELISA analysis. The other half brain was dissected into 25 micron slices, and then the slices were stained with Thioflavin S. Eight slices from hippocampus area of each mouse were subjected to amyloid beta plaque counting by ImageJ.
# Aβ42 [3] = molecular target: T1, Aβ42; test: Thioflavin T test of Aβ42 aggregation; assay type: biochemical; conditions: 10 μM compound, 37° C., 24 hours
# Procedure: A 2.5 μM of Aβ42 solution in PBS was placed at 37° C. for 24 hours., and 10 μL of this solution was added to 1.0 ml PBS solution. The resulting solution was and then subjected to fluorescence spectrum recording with excitation=440 nm, and emission=470-800 nm (baseline recording). To this solution, 10 μL of thioflavin T (2.5 μM in PBS) was added and the spectrum was recorded. The quantification was conducted at λem=500 nm for Thioflavin T reading by subtracting the baseline reading. For CRANAD-17 (10 μM) incubation, the quantification was conducted by subtracting the readings at baseline and CRANAD-17 at λem=500 nm.
# [H13R]Aβ40 = molecular target: T4, [H13R]Aβ40 (Homo sapiens, UniProt P05067, H684R); test: Fluorescence spectra recording with [H13R]Aβ40; assay type: binding
# T4 construct: [H13R]Aβ40 monomers; purchased American Peptide Company
# Procedure: as §3
# Conceivably, it is possible that the pyridyl ring on the other end of CRANAD-3 has a specific interaction with H13 and H14 of Aβ, which have aromatic imidazolium rings and are at the equal distance from K16 as VFF. To this end, the fluorescence intensities of CRANAD-3 with Aβ and H13R substituted Aβ ([H13R]Aβ), in which H13 is replaced by arginine (R) was compared.
Molecule,attenuation of copper-induced crosslinking of native Aβ42 (Aβ42 [1]; Western blot),high molecular weight species on gel (Aβ42 [1]),intensity of monomeric Aβ bands relative to non-treated group (FAM-Aβ42),"attenuation of copper-induced crosslinking (FAM-Aβ42; FAM-Aβ42/compound 1:1, 1:5, 1:10)",attenuation effect compared to curcumin and CRANAD-3 (Aβ42 [1]; Western blot),fluorescence property changes upon mixing with Aβ (human Aβ40),visible fibrils by TEM compared to control (Aβ42 treated with copper only) (Aβ42 [2]),"ELISA analysis of brain extraction, reduction (APP/PS1 mice)",lower NIR signals than non-treated group (imaging with CRANAD-3) (APP/PS1 mice),"plaque counting, reduction (APP/PS1 mice; hippocampus slices, Thioflavin S)",Thioflavin T fluorescence signal (Aβ42 [3]),blue-shift with [H13R]Aβ ([H13R]Aβ40),fluorescence intensity with [H13R]Aβ compared to native Aβ ([H13R]Aβ40)
COc1cc(/C=C/C(=O)CC(=O)/C=C/c2ccc(O)c(OC)c2)ccc1O [curcumin],could attenuate crosslinking,no significant amount of high molecular weight species,1.07 fold,–,–,–,–,–,–,–,–,–,–
c1ccc(-n2ccnc2)cc1 [4-(1H-imidazol-1-yl)benzene],–,–,–,relatively small compared to CRANAD-17,–,–,–,–,–,–,–,–,–
CRANAD-17,could attenuate crosslinking,a certain amount of high molecular weight oligomeric species,1.92 fold,–,significantly higher attenuation effect,intensity increase and blue-shift,less visible fibrils,36%,25%,78%,lower fluorescence signal,no significant blue-shift,significantly lower fluorescence intensity
